ChEMBL document CHEMBL5291721, “A preclinical secondary pharmacology resource illuminates target-adverse drug reaction associations of marketed drugs” (Nat Commun, 2023)

Assays:
[1] = molecular target: Gamma-aminobutyric acid receptor subunit alpha-1/alpha-2/beta-2/gamma-2 (Homo sapiens, UniProt P14867+P18507+P47869+P47870); assay type: protein-complex assay
[2] = molecular target: Vascular endothelial growth factor receptor 2 (Homo sapiens, UniProt P35968); assay type: functional
Also: assay procedure not described here.

Chain of Vascular endothelial growth factor receptor 2 (P35968 whole entry): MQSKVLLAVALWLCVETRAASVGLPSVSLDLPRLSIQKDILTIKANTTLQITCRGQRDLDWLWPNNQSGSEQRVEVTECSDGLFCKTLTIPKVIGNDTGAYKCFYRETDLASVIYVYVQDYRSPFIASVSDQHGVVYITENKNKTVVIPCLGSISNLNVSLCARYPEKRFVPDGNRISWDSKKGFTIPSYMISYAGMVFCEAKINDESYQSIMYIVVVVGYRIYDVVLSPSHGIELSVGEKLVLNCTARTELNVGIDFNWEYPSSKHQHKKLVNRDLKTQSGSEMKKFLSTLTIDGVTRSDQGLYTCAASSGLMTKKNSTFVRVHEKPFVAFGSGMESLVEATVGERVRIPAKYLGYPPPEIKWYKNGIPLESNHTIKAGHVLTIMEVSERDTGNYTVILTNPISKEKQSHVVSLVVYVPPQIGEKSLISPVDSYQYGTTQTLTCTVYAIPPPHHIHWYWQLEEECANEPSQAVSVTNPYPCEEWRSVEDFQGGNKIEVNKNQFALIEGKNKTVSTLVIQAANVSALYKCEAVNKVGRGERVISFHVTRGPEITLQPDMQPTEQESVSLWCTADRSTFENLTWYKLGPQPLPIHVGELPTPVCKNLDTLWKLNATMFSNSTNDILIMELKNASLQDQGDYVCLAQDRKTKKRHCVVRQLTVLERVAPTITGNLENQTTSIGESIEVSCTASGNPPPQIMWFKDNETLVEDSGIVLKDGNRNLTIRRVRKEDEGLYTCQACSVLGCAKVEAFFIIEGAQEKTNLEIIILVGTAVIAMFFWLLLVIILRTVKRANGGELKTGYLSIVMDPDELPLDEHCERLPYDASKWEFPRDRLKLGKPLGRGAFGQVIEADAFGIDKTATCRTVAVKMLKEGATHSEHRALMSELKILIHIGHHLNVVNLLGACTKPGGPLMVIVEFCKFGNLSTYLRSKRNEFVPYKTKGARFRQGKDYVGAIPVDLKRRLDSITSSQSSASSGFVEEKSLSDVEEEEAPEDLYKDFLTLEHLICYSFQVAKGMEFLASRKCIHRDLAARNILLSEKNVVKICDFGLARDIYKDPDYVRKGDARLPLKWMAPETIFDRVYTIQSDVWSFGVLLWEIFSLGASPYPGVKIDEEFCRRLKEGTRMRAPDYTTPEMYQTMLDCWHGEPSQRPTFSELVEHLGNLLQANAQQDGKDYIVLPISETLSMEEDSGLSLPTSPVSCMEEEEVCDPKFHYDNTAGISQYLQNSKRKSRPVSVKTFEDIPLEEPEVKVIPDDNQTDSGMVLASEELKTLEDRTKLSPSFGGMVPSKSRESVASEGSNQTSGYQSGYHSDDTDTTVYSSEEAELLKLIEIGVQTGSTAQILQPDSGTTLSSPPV
Chain of Gamma-aminobutyric acid receptor subunit alpha-1/alpha-2/beta-2/gamma-2 (P14867 whole entry): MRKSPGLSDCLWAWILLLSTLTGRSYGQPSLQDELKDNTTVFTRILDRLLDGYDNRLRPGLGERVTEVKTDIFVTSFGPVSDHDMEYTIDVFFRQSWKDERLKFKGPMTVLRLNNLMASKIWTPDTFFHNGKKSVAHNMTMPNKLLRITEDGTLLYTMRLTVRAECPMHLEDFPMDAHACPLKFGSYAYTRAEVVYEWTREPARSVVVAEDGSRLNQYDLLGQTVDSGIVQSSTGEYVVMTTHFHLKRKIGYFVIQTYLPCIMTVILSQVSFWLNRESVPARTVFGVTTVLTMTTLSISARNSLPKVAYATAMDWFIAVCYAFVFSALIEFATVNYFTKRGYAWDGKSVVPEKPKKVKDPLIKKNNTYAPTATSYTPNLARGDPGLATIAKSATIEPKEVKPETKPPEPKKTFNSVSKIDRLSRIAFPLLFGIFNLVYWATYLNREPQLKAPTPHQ
Chain of Gamma-aminobutyric acid receptor subunit alpha-1/alpha-2/beta-2/gamma-2 (P47870 whole entry): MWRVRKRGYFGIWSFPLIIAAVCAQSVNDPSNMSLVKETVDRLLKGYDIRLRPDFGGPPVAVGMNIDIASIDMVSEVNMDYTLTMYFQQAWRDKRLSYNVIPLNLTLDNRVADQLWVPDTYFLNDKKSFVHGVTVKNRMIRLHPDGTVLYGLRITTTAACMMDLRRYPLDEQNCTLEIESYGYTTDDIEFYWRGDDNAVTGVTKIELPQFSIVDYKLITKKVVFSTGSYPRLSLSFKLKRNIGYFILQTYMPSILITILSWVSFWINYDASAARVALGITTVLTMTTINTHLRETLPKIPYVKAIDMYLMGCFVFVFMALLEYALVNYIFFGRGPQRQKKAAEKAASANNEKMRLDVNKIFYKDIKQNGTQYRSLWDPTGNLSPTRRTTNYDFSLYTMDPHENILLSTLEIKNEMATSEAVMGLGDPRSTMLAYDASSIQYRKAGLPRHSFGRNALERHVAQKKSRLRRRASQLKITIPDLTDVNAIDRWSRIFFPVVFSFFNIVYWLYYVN
Chain of Gamma-aminobutyric acid receptor subunit alpha-1/alpha-2/beta-2/gamma-2 (P18507 whole entry): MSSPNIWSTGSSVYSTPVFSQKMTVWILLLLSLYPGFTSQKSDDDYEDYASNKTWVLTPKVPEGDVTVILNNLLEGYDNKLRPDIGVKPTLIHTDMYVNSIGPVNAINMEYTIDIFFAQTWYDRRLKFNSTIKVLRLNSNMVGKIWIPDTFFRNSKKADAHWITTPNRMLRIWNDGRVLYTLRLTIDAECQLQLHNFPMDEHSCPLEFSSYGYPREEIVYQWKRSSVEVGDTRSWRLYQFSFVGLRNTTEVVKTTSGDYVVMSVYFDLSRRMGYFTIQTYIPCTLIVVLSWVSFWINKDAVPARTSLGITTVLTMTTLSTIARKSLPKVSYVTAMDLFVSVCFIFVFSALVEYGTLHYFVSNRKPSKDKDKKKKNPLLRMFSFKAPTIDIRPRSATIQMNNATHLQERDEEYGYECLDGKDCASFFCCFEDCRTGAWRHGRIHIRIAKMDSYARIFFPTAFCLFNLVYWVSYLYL
Chain of Gamma-aminobutyric acid receptor subunit alpha-1/alpha-2/beta-2/gamma-2 (P47869 whole entry): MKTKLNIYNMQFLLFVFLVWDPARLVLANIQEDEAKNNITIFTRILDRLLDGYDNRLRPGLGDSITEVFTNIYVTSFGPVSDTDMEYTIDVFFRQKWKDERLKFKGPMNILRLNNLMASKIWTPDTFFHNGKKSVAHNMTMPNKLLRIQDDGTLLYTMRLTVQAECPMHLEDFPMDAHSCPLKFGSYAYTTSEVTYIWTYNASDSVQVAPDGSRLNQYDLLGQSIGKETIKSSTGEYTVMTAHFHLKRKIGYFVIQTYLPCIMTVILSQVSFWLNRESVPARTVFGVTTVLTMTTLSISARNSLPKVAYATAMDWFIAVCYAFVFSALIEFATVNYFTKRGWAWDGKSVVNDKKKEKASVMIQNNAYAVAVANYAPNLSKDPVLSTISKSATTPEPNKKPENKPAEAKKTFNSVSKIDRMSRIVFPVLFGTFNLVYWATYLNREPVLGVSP

In the case of `C[C@H]1O[C@@H](O[C@H]2[C@@H](O)C[C@H](O[C@H]3[C@@H](O)C[C@H](O[C@H]4CC[C@@]5(C)[C@H](CC[C@@H]6[C@@H]5CC[C@]5(C)[C@@H](C7=CC(=O)OC7)CC[C@]65O)C4)O[C@@H]3C)O[C@@H]2C)C[C@H](O)[C@@H]1O` [DIGITOXIN], the AC50 [1] is reported as over 30 µM and the AC50 [2] is reported as over 30 µM.

With `OC(CCCN1CCCCC1)(c1ccccc1)c1ccccc1` [DIPHENIDOL] the AC50 [1] was over 30 µM and the AC50 [2] was over 30 µM.

For `O=C(Oc1ccccc1C(=O)O)c1ccccc1O` [SALSALATE], the AC50 [1] was over 30 µM and the AC50 [2] was over 30 µM.

With `c1ccc2[nH]c(-c3cscn3)nc2c1` [THIABENDAZOLE] the AC50 [1] was over 30 µM and the AC50 [2] was over 30 µM.
